Like-named read-outs stand apart in the source and are kept apart here. Blank lines part the entries; values can stand above or below the molecule they belong to.
How the values were obtained:
[1] = system: rats; assay: Inhibition of apomorphine-induced stereotypical behaviour in rats; assay type: in vivo, rat; settings: for ED50: Rattus norvegicus, sc, read-out: Inhibition of apomorphine-induced stereotypical behaviour in rats 50% inhibition/ED50 s.c. at:
Excerpt: (§1) Additionally, in the binding experiment this active compound displaces tritiated ifenprodil in the forebrain of rats from its binding site (for method see Schoemaker et al., European J. Pharmacol. 176 (1990), 249-250), which represents a receptor at the N-methyl-D-aspartate (NMDA) receptor/ion channel complex as a subtype of the glutamate receptors.
2. Inhibition of apomorphine-induced stereotypical behaviour in rats (Puech et al., 1978):
Stereotypical behaviour (unmotivated sniffling, licking, chewing, rhythmic movements with the forepaws) was induced by administration of 0.5 mg/kg s.c. of apomorphine. The intensity of the ensuing stereotypical behaviour was assessed every 5 minutes for each rat for a period of 30 minutes using a rating system (0-3). The total score was used as a measure of the occurence of the stereotypical behaviour.

[2] = biological target: T1, polyamine binding site (ifenprodil binding site at the NMDA receptor/ion channel complex) (Rattus norvegicus, UniProt P35439+Q00960); assay: Ifenprodil binding ([3H]-ifenprodil displacement, rat forebrain membranes)
T1 construct: Homogenates of rat forebrain were centrifuged repeatedly; from tissue; host or cells: rat forebrain membranes
T1 sequence (Q00960 27-1482, other chains not shown): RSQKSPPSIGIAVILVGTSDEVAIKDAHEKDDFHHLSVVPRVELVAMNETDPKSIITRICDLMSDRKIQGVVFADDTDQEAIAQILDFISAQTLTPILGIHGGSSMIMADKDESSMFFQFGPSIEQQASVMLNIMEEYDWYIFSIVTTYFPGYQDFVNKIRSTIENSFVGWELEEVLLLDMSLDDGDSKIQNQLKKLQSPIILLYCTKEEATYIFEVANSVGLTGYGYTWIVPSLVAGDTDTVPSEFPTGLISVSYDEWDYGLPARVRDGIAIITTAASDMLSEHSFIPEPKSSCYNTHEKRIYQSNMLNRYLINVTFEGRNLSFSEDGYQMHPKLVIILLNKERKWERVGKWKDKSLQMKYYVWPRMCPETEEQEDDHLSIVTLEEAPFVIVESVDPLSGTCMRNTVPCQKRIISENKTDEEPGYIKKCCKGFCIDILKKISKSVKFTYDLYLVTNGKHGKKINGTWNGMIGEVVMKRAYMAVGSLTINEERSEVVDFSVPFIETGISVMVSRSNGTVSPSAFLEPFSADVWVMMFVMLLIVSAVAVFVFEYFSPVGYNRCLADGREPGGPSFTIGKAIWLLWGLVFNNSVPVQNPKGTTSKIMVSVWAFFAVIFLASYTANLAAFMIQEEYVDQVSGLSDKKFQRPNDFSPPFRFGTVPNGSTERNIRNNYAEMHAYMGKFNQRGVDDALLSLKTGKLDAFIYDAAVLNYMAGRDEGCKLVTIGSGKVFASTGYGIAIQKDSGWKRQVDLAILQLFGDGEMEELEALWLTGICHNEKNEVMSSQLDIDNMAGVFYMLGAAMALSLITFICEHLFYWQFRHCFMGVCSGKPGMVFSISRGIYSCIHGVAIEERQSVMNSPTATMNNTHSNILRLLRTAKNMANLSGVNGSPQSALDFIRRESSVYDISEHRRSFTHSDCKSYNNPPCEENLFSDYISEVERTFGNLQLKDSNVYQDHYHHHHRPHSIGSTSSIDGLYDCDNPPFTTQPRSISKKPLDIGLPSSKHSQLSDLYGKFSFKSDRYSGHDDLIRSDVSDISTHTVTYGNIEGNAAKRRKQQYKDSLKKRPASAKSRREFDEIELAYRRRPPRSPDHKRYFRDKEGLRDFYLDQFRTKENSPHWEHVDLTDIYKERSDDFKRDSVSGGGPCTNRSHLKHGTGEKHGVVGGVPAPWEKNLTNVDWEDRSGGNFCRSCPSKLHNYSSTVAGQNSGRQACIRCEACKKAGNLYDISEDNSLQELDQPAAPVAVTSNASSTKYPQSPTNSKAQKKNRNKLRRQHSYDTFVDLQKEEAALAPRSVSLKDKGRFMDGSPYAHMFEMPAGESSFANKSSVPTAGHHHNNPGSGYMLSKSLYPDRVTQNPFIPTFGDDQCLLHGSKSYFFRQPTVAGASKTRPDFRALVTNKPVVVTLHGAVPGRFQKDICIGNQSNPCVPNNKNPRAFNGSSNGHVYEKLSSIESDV
Description: as §1
1. Ifenprodil binding (Schoemaker et al., 1990)
Homogenates of rat forebrain were centrifuged repeatedly. The last membrane […] (10 mg/ml) was used to determine the specific binding in the presence of 1.15 nM [^3H]-ifenprodil in 5 ml of buffer solution at pH 7.4. The unspecific binding was determined in the presence of 100 μM of ifenprodil.

[3] = system: rats; assay: Catalepsy induction in rats; assay type: in vivo, rat
Description: as §1
3. Catalepsy induction in rats (Stanley and Glick, 1976):
The occurrence of catalepsy in rats was measured by placing a hindpaw on a 3 cm high block and scoring every 5 minutes for a period of 30 minutes the time for which the rat stayed in this unnatural position using a rating system (score 0-3). The total score was used as a measure of the intensity of the catalepsy.

[4] = system: mice; assay: Apomorphine-induced climbing behaviour in mice; assay type: in vivo, mouse
[5] = system: rats; assay: Conditioned avoiding reaction in rats; assay type: in vivo, rat
[6] = system: mice; assay: Spontaneous behaviour of mice (Irwin); assay type: in vivo, mouse
[7] = system: rats; assay: Spontaneous behaviour of rats (Irwin); assay type: in vivo, rat
[8] = system: rats; assay: Ultrasound vocalization after electric stimulation in rats; assay type: in vivo, rat; settings: proof of the anxiolytic action
[9] = apomorphine 0.5 mg/kg s.c., methanesulfonate salts
[10] = rat forebrain homogenate, 1.15 nM [3H]-ifenprodil, pH 7.4, methanesulfonate salts, read-out: Ifenprodil binding in vitro 50% displacement/IC50 at:

SMILES: Cc1ccc(N2C[C@H](CN3CCC(Cc4ccc(F)cc4)CC3)OC2=O)cc1 [R = CH3, reference compound]
ED50 [1, 9]: > 10 mg/kg
IC50 [2, 10]: > 1 µM

SMILES: O=C1O[C@@H](CN2CCC(Cc3ccc(F)cc3)CC2)CN1c1ccc(F)cc1 [R = F, reference compound]
ED50 [1, 9]: > 10 mg/kg
IC50 [2, 10]: > 1 µM

SMILES: COc1ccc(N2C[C@H](CN3CCC(Cc4ccc(F)cc4)CC3)OC2=O)cc1 [R = OCH3, (5S)-(−)-5-[4-(4-fluorobenzyl)-1-piperidinylmethyl]-3-(4-methoxyphenyl)-oxazolidin-2-one, reference compound]
ED50 [1, 9]: > 10 mg/kg
IC50 [2, 10]: > 1 µM

Now from value to molecule, other results behind:

IC50 ([2]; in vitro, read-out: IC50 for the polyamine binding site): 0.01 µM
IC50 [2, 10]: 0.01 µM
SMILES: O=C1O[C@@H](CN2CCC(Cc3ccc(F)cc3)CC2)CN1c1ccc(O)cc1 [R = OH, (5S)-(−)-5-[4-(4-fluorobenzyl)-1-piperidinylmethyl]-3-(4-hydroxyphenyl)oxazolidin-2-one]
Inhibition of apomorphine-induced stereotypical behaviour in rats 50% inhibition/ED50 s.c. at: ([1]; s.c., apomorphine 0.5 mg/kg s.c., methanesulfonate salts): 2.8 mg/kg
Catalepsy induction Rat ([3]; 30 mg/kg s.c., rat, methanesulfonate salt): 0%
Catalepsy ED50 ([3]; in vivo animal models): > 30 mg/kg

displacement of tritiated ifenprodil from its binding site ([2]; forebrain of rats): displaces
SMILES: O=C1OC(CN2CCC(Cc3ccc(F)cc3)CC2)CN1c1ccc(O)cc1 (stereo not shown) [formula I, 5-[4-(4-fluorobenzyl)piperidin-1-ylmethyl]-3-(4-hydroxy-phenyl) oxazolidin-2-one]
apomorphine-induced stereotypical behaviour in rats (in words) [1]: inhibits
occurrence of catalepsy (in words) ([3]; rat, in vivo): without the occurrence of catalepsy
apomorphine-induced climbing behaviour in mice [4]: inhibits
conditioned avoiding reaction in rats [5]: inhibits
effect on the spontaneous behaviour of mice [6]: depressive effect
effect on the spontaneous behaviour of rats [7]: depressive effect
ultrasound vocalization after electric stimulation in rats [8]: inhibits

Reference: US6413989B1, “Piperidinylmethyloxazolidinone derivative” (Merck Patent Gesellschaft mit beschrankter Haftung, priority 1997, dated 2002)
